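In this assay, cells in 96-well plates receive the compound at five concentrations for 48 hours. Endpoints are linearly interpolated between the surrounding concentrations. GI50 is the concentration that inhibits growth by half. TGI marks complete inhibition of growth.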
Assays:
Test in all cases: DTP human tumour cell line panel, 48 h
COLO 205 colon = system: COLO 205 colon
HS 578T breast = system: HS 578T breast
HT29 colon = system: HT29 colon
IGROV1 ovarian = system: IGROV1 ovarian
M14 melanoma = system: M14 melanoma
MALME-3M melanoma = system: MALME-3M melanoma
MDA-MB-231 breast = system: MDA-MB-231 breast
RPMI-8226 leukemia = system: RPMI-8226 leukemia
SN12C renal = system: SN12C renal
ACHN renal = system: ACHN renal

Row | Structure (SMILES) | GI50 (COLO 205 colon) [µM] | TGI (COLO 205 colon) [µM] | GI50 (HS 578T breast) [µM] | TGI (HS 578T breast) [µM] | GI50 (HT29 colon) [µM] | TGI (HT29 colon) [µM] | GI50 (IGROV1 ovarian) [µM] | TGI (IGROV1 ovarian) [µM] | GI50 (M14 melanoma) [µM] | TGI (M14 melanoma) [µM] | GI50 (MALME-3M melanoma) [µM] | TGI (MALME-3M melanoma) [µM] | GI50 (MDA-MB-231 breast) [µM] | TGI (MDA-MB-231 breast) [µM] | GI50 (RPMI-8226 leukemia) [µM] | TGI (RPMI-8226 leukemia) [µM] | GI50 (SN12C renal) [µM] | TGI (SN12C renal) [µM] | GI50 (ACHN renal) [µM] | TGI (ACHN renal) [µM]
1 | COc1ccc2[nH]c(O)c(/C=c3/ccc4c(c3)N=C(c3ccc(F)cc3)N=4)c2c1 | 5.13 | > 100 | 2.73 | 9.4 | 3.62 | 16.8 | 3.27 | 17.9 | 2.66 | 11.1 | 2.58 | 6.32 | 2.25 | 6.04 | 3.01 | > 100 | 4.88 | > 100 | – | –
2 | Cn1c2ccccc2c2nnc(NNCc3ccccn3)nc21 | 0.476 | 11.4 | 1.44 | 16.7 | 0.526 | 22.9 | 0.364 | 4.79 | 0.246 | 0.738 | 0.4 | 4.37 | 1.03 | 18 | 0.589 | 18.4 | 0.462 | 14.6 | 0.305 | 2.37
3 | Nc1nc(-c2cc(-c3cccc4ccccc34)nc(N)n2)cc(-c2cccc3ccccc23)n1 | – | > 100 | – | > 100 | – | > 100 | – | > 100 | – | > 100 | – | > 100 | – | > 100 | – | > 100 | – | > 100 | – | > 100
4 | Cc1cc(S(N)(=O)=O)c(S/C(=N\Nc2ccc([N+](=O)[O-])cc2)c2ccc3ccccc3c2)cc1Cl | 84 | > 100 | 2.19 | 8.86 | 73.2 | > 100 | 54.3 | > 100 | 44.1 | > 100 | 11.7 | 25.7 | 13.4 | 29.6 | 37.7 | > 100 | 18.6 | 44.1 | 17 | 30.7
5 | COc1ccc2nccc(/C=C/c3ccnc4ccc(OC)cc34)c2c1 | > 100 | > 100 | 23.6 | 90.1 | > 69.9 | > 100 | 28.4 | 75.7 | > 42 | > 56 | 22.1 | 48.1 | > 41.5 | > 61.6 | 17.8 | 39.9 | > 100 | > 100 | > 71 | > 100
6 | Cc1ncc(-c2ccnc(Nc3ccc(S(C)(=O)=O)cc3)n2)n1C(C)C | 0.532 | 2.37 | 0.977 | 5.33 | 1.29 | > 10 | 0.758 | > 7.91 | 1.6 | 5.04 | 2.56 | 6.04 | 1.88 | > 9.48 | 1.57 | 6.18 | 1.34 | 9.84 | 0.603 | > 9.54
7 | Oc1ccccc1C=Nc1ccccc1N=Cc1ccccc1O.[Cu+2] | 3.45 | 14.5 | 15.4 | 92 | 13.7 | 32 | 3.27 | 20.1 | 4.33 | 16.4 | 6.52 | 21.2 | 6.08 | 21.2 | 2.09 | 40.8 | 4.84 | 18.7 | 5.64 | 22.2
8 | Cc1cc2c(=O)[nH]c(N)nc2nc1C | – | > 100 | – | > 100 | – | > 100 | – | > 100 | – | > 100 | – | > 100 | – | > 100 | – | > 100 | – | > 100 | – | > 100
9 | NCCN1C(=O)c2ccccc2C1(O)c1ccc(Cl)cc1 (stereo not drawn) | – | 39.4 | – | 33.1 | – | 39.8 | – | 41 | – | 36 | – | 27.2 | – | 34.7 | – | 39.7 | – | > 100 | – | 59.3
10 | O=C(Nc1cccc(-n2cc(-c3ccncc3)c(-c3ccc(O)c(Cl)c3)n2)c1)c1ccc(Cl)c(Cl)c1 | 62.2 | > 100 | 2.82 | > 100 | 26 | > 100 | 25.5 | > 100 | 5.26 | 54.6 | 3.58 | 21 | 1.52 | 8.58 | 3.46 | > 100 | 23.1 | > 100 | 4.62 | > 100
11 | CCN(CC)c1ccc(/C=C/C=C(/C#N)C(N)=S)cc1 | 7.13 | > 100 | 38.5 | > 100 | 2.84 | 23.9 | 17.9 | > 100 | 2.53 | 9.33 | 32 | > 100 | 2.11 | 6.03 | 2.14 | 7.88 | 7.56 | 75.2 | 24 | > 100
12 | CNC(=O)c1cc2c(Oc3ccc(NC(=S)NC(=O)Cc4ccccc4)cc3F)ccnc2cc1OC | 5.37 | > 100 | 1.29 | 8.05 | 3.16 | > 100 | 5.96 | > 100 | > 24.3 | > 100 | 8.85 | > 100 | 3.87 | > 100 | > 28.3 | > 100 | 2.18 | > 100 | 3.5 | > 100
13 | CN1CCN(c2ccc(C(=O)Nc3cccc(C#Cc4cccc5[nH]nc(N)c45)c3)cc2C(F)(F)F)CC1 | 0.581 | 1.2 | 0.847 | 3.4 | 0.715 | 1.81 | 0.716 | 1.92 | 0.636 | 1.34 | 0.651 | 1.62 | 0.568 | 1.35 | 1.45 | 4.06 | 1.2 | 4.54 | 0.801 | 2.4
14 | O=c1cc(O)c2c(O)cc(O)cc2o1 | – | > 100 | – | > 100 | – | > 100 | – | > 100 | – | > 100 | – | > 100 | – | > 100 | – | > 100 | – | > 100 | – | > 100
